In PubChem BioAssay (NCI) one finds TGI and GI50 data, which are given here for nine molecules.

Test systems include CCRF-CEM leukemia; COLO 205 colon; EKVX NSCLC; HL-60(TB) leukemia; HS 578T breast; MCF7 breast; NCI-H23 lung; NCI/ADR-RES ovarian; SF-295 CNS; HOP-92 NSCLC.
Test in all cases: growth of human tumour cells (NCI), 48 h

Several values for one entry are separate records, joined by “and”; a condition that tells them apart may be missing. Equal values may be shown once.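 Five concentrations, 48 hours, 96-well plates. Here, GI50 denotes the concentration required for 50% inhibition of growth. TGI denotes the concentration required for complete inhibition of growth.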 Where only a bound is given, the exact number is not on record here.

With `Sc1ccc2ccccc2c1CNCc1ccccc1`, the TGI in the assay with CCRF-CEM leukemia is 54.1 µM; in the assay with COLO 205 colon, 28.2 µM; in the assay with EKVX NSCLC it was 78.3 µM; with HL-60(TB) leukemia, 26.9 µM; in the assay with HS 578T breast it was 67.2 µM; in the assay on MCF7 breast it was greater than 100 µM. Besides, the figures for the TGI with NCI-H23 lung, with NCI/ADR-RES ovarian and in the assay on SF-295 CNS were 59.7 µM, 98.1 µM and 47.3 µM, respectively.

In the case of `COC(=O)NC1(NC(=O)OC)NC(=O)c2cc(OC)c(OC)cc2N1`, the TGI is 55.3 µM in the assay on CCRF-CEM leukemia; greater than 100 µM in the assay on COLO 205 colon; greater than 100 µM with EKVX NSCLC; 85.1 µM with HS 578T breast; greater than 100 µM with MCF7 breast; greater than 100 µM in the assay with NCI-H23 lung. Besides, the TGI with NCI/ADR-RES ovarian and with SF-295 CNS was greater than 100 µM each time.

In the case of `CCN(CC)CC.CCOc1ccc(NC(=O)N=C=[N-])cc1.[CH-]1CCCCC1.[CH-]1CCCCC1.[CH-]1CCCCC1.[Cl-].[Sn+4]`, the GI50 was less than 0.0162 µM with CCRF-CEM leukemia; 0.0184 µM with COLO 205 colon; 0.043 µM with EKVX NSCLC; 0.0184 µM with HL-60(TB) leukemia; 0.0264 µM in the assay on HOP-92 NSCLC; 0.0565 µM in the assay with HS 578T breast. Also, the GI50 in the assay on NCI-H23 lung is 0.0312 µM; in the assay on NCI/ADR-RES ovarian, 0.0221 µM; in the assay on SF-295 CNS, 0.0521 µM. Further, the TGI with CCRF-CEM leukemia amounted to 0.515 µM; in the assay on COLO 205 colon it was 0.0422 µM; with EKVX NSCLC, 0.143 µM; in the assay with HL-60(TB) leukemia, 0.0584 µM; with HOP-92 NSCLC, 0.111 µM; with HS 578T breast, 0.47 µM. Besides, the TGI turned out to be 0.0882 µM with NCI-H23 lung, 0.0559 µM in the assay with NCI/ADR-RES ovarian and 0.149 µM in the assay with SF-295 CNS.

As to `CCOC(CCCNCCCn1c2c(c3cc(OC)c(OC)cc3c1=O)C(=O)c1cc3c(cc1-2)OCO3)OCC`, the GI50 in the assay with CCRF-CEM leukemia was 0.759 µM; in the assay with COLO 205 colon, 7.81 µM; with HL-60(TB) leukemia, 5.25 µM; in the assay on HOP-92 NSCLC it was 0.126 µM; in the assay on HS 578T breast it was 5.76 µM; with MCF7 breast it was 1.19 µM. Moreover, the GI50 in the assay on NCI-H23 lung was 5.65 µM; in the assay with NCI/ADR-RES ovarian it was 6.5 µM; in the assay on SF-295 CNS, 1.45 µM. In addition, the TGI was 6.24 µM with CCRF-CEM leukemia; 14.5 µM with COLO 205 colon; 11.1 µM in the assay with HL-60(TB) leukemia; 8.47 µM in the assay with HOP-92 NSCLC; 12.7 µM with HS 578T breast; 9.3 µM in the assay on MCF7 breast. For the same molecule, the TGI in the assay on NCI-H23 lung was found to be 11.7 µM; in the assay on NCI/ADR-RES ovarian, 13.7 µM; in the assay on SF-295 CNS, 8.6 µM.

With `CCc1c2c(nc3cc4c(c(N)c13)OCO4)-c1cc3c(c(=O)n1C2)COC(=O)[C@]3(O)CC`, the GI50 in the assay with COLO 205 colon was 0.696 µM; with EKVX NSCLC it was 1.93 µM and 0.962 µM; with HL-60(TB) leukemia, less than 0.001 µM; in the assay on HOP-92 NSCLC, 0.00602 µM; with MCF7 breast, less than 0.001 µM; in the assay with NCI-H23 lung, less than 0.001 µM. Also, in the assay with SF-295 CNS, the GI50 was less than 0.001 µM. Moreover, the TGI was 48.7 µM in the assay on EKVX NSCLC; 0.562 µM and 0.992 µM with HOP-92 NSCLC; greater than 100 µM in the assay on HS 578T breast; 0.0298 µM in the assay with MCF7 breast; 56.7 µM in the assay with NCI/ADR-RES ovarian.

Take `O=C(CSc1nc2ccccc2nc1-c1ccccc1)Nc1ccc(Cl)cc1`: the GI50 is greater than 100 µM in the assay on CCRF-CEM leukemia; greater than 100 µM with COLO 205 colon; 49.5 µM in the assay on EKVX NSCLC; 15.4 µM in the assay on HOP-92 NSCLC; 16.1 µM in the assay on HS 578T breast; 44.3 µM in the assay on MCF7 breast. For the same molecule, the GI50 was 30.5 µM in the assay on NCI-H23 lung, 24.9 µM in the assay with NCI/ADR-RES ovarian and 17.5 µM in the assay with SF-295 CNS. Besides, the TGI is greater than 100 µM with CCRF-CEM leukemia; greater than 100 µM in the assay with COLO 205 colon; greater than 100 µM with EKVX NSCLC; 63.5 µM in the assay on HOP-92 NSCLC; 70 µM in the assay with HS 578T breast; greater than 100 µM in the assay with MCF7 breast. The values for the TGI with NCI-H23 lung, in the assay on NCI/ADR-RES ovarian and with SF-295 CNS were greater than 100 µM, 91.5 µM and 85.1 µM, respectively.

For `O=C1/C(=C\c2ccc(F)cc2)CN(C(=O)c2ccc([N+](=O)[O-])cc2)C/C1=C\c1ccc(F)cc1`, the GI50 was 1.64 µM with CCRF-CEM leukemia; 3.17 µM in the assay with COLO 205 colon; 5.07 µM in the assay with HL-60(TB) leukemia; 11.4 µM with HOP-92 NSCLC; 2.29 µM in the assay on HS 578T breast; 0.389 µM in the assay with MCF7 breast. The GI50 with NCI-H23 lung is 3.6 µM; in the assay on NCI/ADR-RES ovarian, 3.65 µM; in the assay on SF-295 CNS, 2.99 µM. Moreover, the TGI in the assay with CCRF-CEM leukemia is greater than 42.6 µM; in the assay on COLO 205 colon, 12.7 µM; with HL-60(TB) leukemia it was greater than 50.2 µM; in the assay with HOP-92 NSCLC, greater than 100 µM; in the assay with HS 578T breast, 8.79 µM; in the assay with MCF7 breast, 4.19 µM. The results for the TGI with NCI-H23 lung, in the assay on NCI/ADR-RES ovarian and in the assay with SF-295 CNS were 15.6 µM, greater than 100 µM and 16.4 µM, respectively.

`Cc1ccc2c(c1)C(C)Cc1c(ncnc1-n1cnc3cc(C)ccc31)N2C` (stereo not given): the GI50 in the assay with CCRF-CEM leukemia is 0.0362 µM; with COLO 205 colon, 0.0224 µM; in the assay on EKVX NSCLC, 0.0634 µM; with HL-60(TB) leukemia, 0.025 µM; with HOP-92 NSCLC, 0.301 µM; in the assay on HS 578T breast, 0.0459 µM. For the same molecule, the GI50 with MCF7 breast is 0.0345 µM; with NCI-H23 lung, 0.0567 µM; in the assay with NCI/ADR-RES ovarian it was 0.0374 µM. In addition, the TGI turned out to be 17.6 µM with CCRF-CEM leukemia; 0.0553 µM with COLO 205 colon; 23.8 µM in the assay on EKVX NSCLC; 0.0557 µM with HL-60(TB) leukemia; 5.21 µM in the assay with HOP-92 NSCLC; 23 µM in the assay on HS 578T breast. Besides, the TGI came to 12.8 µM with MCF7 breast, 21.5 µM in the assay with NCI-H23 lung and 54.3 µM in the assay with NCI/ADR-RES ovarian.

On to `NCCCCCCCCn1c2c(c3ccccc3c1=O)C(=O)c1ccccc1-2`, for which the GI50 in the assay on EKVX NSCLC is 17.4 µM; in the assay on HL-60(TB) leukemia it was 2.34 µM; in the assay on HOP-92 NSCLC, 2.4 µM; in the assay on HS 578T breast it was 3.83 µM; in the assay with MCF7 breast, 7.45 µM; with NCI-H23 lung, 4.57 µM. The GI50 is 4.29 µM in the assay on NCI/ADR-RES ovarian and 2.57 µM in the assay with SF-295 CNS. The TGI in the assay with EKVX NSCLC came to 44.7 µM; in the assay with HL-60(TB) leukemia, 6.23 µM; in the assay on HOP-92 NSCLC, 8.47 µM; in the assay with HS 578T breast, 22.2 µM; with MCF7 breast, 46.2 µM; in the assay with NCI-H23 lung, 21.6 µM. The TGI in the assay on NCI/ADR-RES ovarian was 85.1 µM; with SF-295 CNS it was 7.18 µM.
